Here are results for one compound from patent US20200069644A1, “NOVEL USE OF A FORMYL PEPTIDE RECEPTOR 2/ LIPOXIN A4 RECEPTOR (FPR2/ALX) AGONIST FOR TREATMENT OF HEART FAILURE” (BRISTOL- MYERS SQUIBB COMPANY, priority 2017, published 2020).

The target of one data set is T1, Mouse FPR2 (Mus musculus, UniProt O88536).
T1 construct: expressed in transfected cells; host or cells: CHO-A12
T1 sequence (O88536 1-351): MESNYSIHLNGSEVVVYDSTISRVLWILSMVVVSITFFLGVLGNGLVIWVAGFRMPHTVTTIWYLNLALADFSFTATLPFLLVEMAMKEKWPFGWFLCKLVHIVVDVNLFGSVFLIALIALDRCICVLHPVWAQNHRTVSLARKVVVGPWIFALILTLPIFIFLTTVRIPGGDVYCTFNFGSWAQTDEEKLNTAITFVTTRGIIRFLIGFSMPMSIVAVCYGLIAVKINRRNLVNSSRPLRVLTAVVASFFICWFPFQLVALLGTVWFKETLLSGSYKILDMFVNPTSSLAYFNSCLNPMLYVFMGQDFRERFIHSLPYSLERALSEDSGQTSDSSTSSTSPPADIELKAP
Description: cAMP inhibition, mouse FPR2/CHO-A12. Format: cell-based. On the procedure: [Worded in the source for another species; this species is reported under the same test.] A mixture of forskolin (5 μM final for FPR2 or 10 μM final for FPR1) and IBMX (200 μM final) were added to 384-well Proxiplates (Perkin-Elmer) pre-dotted with test compounds in DMSO (1% final) at final concentrations in the range of 0.1 nM to 10 μM. CHO overexpressing human FPR1 or human FPR2 receptors were cultured in F-12 (Ham's) medium supplemented with 10% qualified FBS, 250 μg/ml zeocin and 300 μg/ml hygromycin (Life Technologies). Reactions were initiated by adding 2,000 human FPR2 cells per well or 4,000 human FPR1 cells per well in Dulbecco's PBS (with calcium and magnesium) (Life Technologies) supplemented with 0.1% BSA (Perkin-Elmer). The reaction mixtures were incubated for 30 min at room temperature. The level of intracellular cAMP was determined using the HTRF HiRange cAMP assay reagent kit (Cisbio) according to manufacturer's instruction. Solutions of cryptate conjugated anti-cAMP and d2 flurorophore-labelled cAMP were made in a supplied lysis buffer separately. […] After a 1 h room temperature incubation, time-resolved fluorescence intensity was measured using the Envision (Perkin-Elmer) at 400 nm excitation and dual emission at 590 nm and 665 nm. […] The potency and activity of Compound 1 to inhibit cAMP production was then determined by fitting to a 4-parametric logistic equation from a plot of cAMP level versus compound concentrations. […]

For data set [1], the system named is angiotensin II-induced cardiac fibrosis in mice. Nature of the data set: Angiotensin II-induced cardiac fibrosis mouse model. As to conditions: 3 mg/kg QD for 3 weeks, P<0.001. Format: in vivo. On the procedure: To assess myocardial fibrosis in the setting of non-ischemic heart disease with hypertension, mice were challenged with angiotensin II to stimulate cardiac hypertrophy and left ventricular fibrosis. Mice were administered angiotensin II using subcutaneously implanted osmotic mini-pumps (˜2 mg/kg/day). A separate group of mice were implanted with subcutaneous pumps containing saline (surgical “sham” group); these mice served as control for pump implantation surgery. Mice were treated with Compound 1 (3 mg/kg, QD) or dosing solution without compound (QD, referred to as vehicle) starting 7 days following pump implantation. In this model, cardiac fibrosis development reaches its peak and without treatment, will remain fibrotic at this high level until the angII is depleted (˜4 weeks post implantation). Interventional treatment with Compound 1 to regress cardiac fibrosis was given to mice for 3 weeks. At the end of treatment phase, hearts were removed from animals and evaluated for collagen levels/fibrosis by cross-sectional histology of the hearts.
Myocardial fibrosis was evaluated in the mouse with continuous angiotensin II challenge administered by subcutaneous osmotic mini-pump. This is a model of non-ischemic heart disease.
The effect of Compound 1 on regression of established cardiac fibrosis was evaluated in the angiotensin II-induced cardiac fibrosis mouse model. […]

Data set [2] concerns DOCA-challenged cardiac fibrosis in mice. Format: in vivo. On the procedure:
In a second model of non-ischemic heart disease with hypertension, mice were subjected to uni-nephrectomy and challenged with deoxycorticosterone acetate (DOCA) and saline drinking water to stimulate cardiac hypertrophy and left ventricular fibrosis. Mice were administered DOCA using subcutaneously implanted pellets (50 mg). A separate group of mice were subjected to surgery via creation of subcutaneous pocket (surgical “sham” group); these mice served as control for pellet implantation surgery. Mice were treated with Compound 1 (1 mg/kg, QD) or dosing solution (QD, referred to as vehicle) 24 hours after surgery. Treatment with Compound 1 was given to mice for 3 weeks. At the end of treatment phase, hearts were removed from animals and evaluated for collagen levels/fibrosis by cross-sectional histology of the hearts.
Myocardial fibrosis was evaluated in the mouse with continuous DOCA challenge administered by subcutaneous release pellet. The model increases systemic blood pressure and tissue inflammation in target tissues such as the myocardium via agonism of the mineralocorticoid receptor by DOCA. It also involves surgical uni-nephrectomy and supplementation with saline in the drinking water to further drive disease pathology. This is a model of non-ischemic heart disease.
The effect of Compound 1 on cardiac fibrosis development in the DOCA-salt mouse model was evaluated histologically. […]

Each structure is given as a SMILES string. pEC50: −log10 of the molar value.

As a reminder, the pEC50 is the EC50 on a negative log10 scale, so that one unit is a factor of ten. With `COc1cc(F)c([C@@H]2CNC(=O)[C@H]2NC(=O)Nc2ccccc2)c(F)c1` [Compound 1, 1-((3S,4R)-4-(2,6-difluoro-4-methoxyphenyl)-2-oxopyrrolidin-3-yl)-3-phenylurea], the “selectivity for mouse FPR2 vs. FPR1” value at Mouse FPR2 (CHO cell lines, cAMP) was 640 fold. This compound gave a pEC50 at Mouse FPR2 (Mouse FPR2/CHO-A12) of 9.22. The “reduction of left ventricular fibrosis vs. vehicle treatment group” value is 90% in data set [1] (started 7 days after pump implantation) and 50% in data set [2] (1 mg/kg QD for 3 weeks, started 24 h after surgery, P<0.01). Moreover, the “reduction of fibrosis relative to 7-day baseline group” value in data set [1] is given as 89%. Besides, the “tolerability during in-life phase” value in data set [2] (mouse, in vivo, 1 mg/kg) is listed as “well tolerated”.
